According to article PMC9865890, “N-Derivatives of (Z)-Methyl 3-(4-Oxo-2-thioxothiazolidin-5-ylidene)methyl)-1H-indole-2-carboxylates as Antimicrobial Agents—In Silico and In Vitro Evaluation” (Pharmaceuticals, 2023):
≈ marks a conversion by molar mass, not a printed value. Read-outs that look alike come from different tables or passages of the source.

Columns and labels:
Type in all cases: cell-based
[1] = test system: Bacillus cereus (clinical isolate); assay: Antibacterial microdilution (MIC/MBC); conditions: Bacillus cereus, B.c. (B. cereus); for MIC: read-out: MIC
Method: (§1) The synthesized compounds (Table 1) were evaluated for their antibacterial activity against a panel of eight species using a microdilution method with ampicillin and streptomycin as reference drugs. […] The order of activity can be presented as: 8 > 11 > 2 > 1 > 12 > 3 > 17 > 7 > 5 > 13 > 14 > 16 > 9 > 4 = 6 > 15 > 10. […] Cloacae. […] The most sensitive bacteria appeared to be En. cloacae, while E. coli was the most resistant one, followed by M. flavus.
(§2) The following Gram-negative bacteria: Escherichia coli (ATCC 35210), Enterobacter cloacae (clinical isolate), Salmonella typhimurium (ATCC 13311), as well as Gram-positive bacteria: Listeria monocytogenes (NCTC 7973), Bacillus cereus (clinical isolate), and Staphylococcus aureus (ATCC 6538) were used. The organisms were obtained from the Mycological Laboratory, Department of Plant Physiology, Institute for Biological Research “Siniša Stankovic”, Belgrade, Serbia. The minimum inhibitory (MIC) and minimum bactericidal (MBC) concentrations were determined by the modified microdilution method, as previously reported.

M. flavus = assay: Antibacterial microdilution (MIC/MBC); conditions: Micrococcus flavus; M.f. (M. flavus)
Method: as §1, §2

[2] = test system: Enterobacter cloacae (clinical isolate); assay: Antibacterial microdilution (MIC/MBC); conditions: En.cl (En. cloacae)
Method: as §1, §2

P. aeruginosa = assay: Antibacterial microdilution (MIC/MBC); conditions: Pseudomonas aeruginosa, P.a. (P. aeruginosa); for MIC: read-out: MIC
Method: as §1, §2

[3] = test system: Escherichia coli (ATCC 35210); assay: Antibacterial microdilution (MIC/MBC); conditions: Escherichia coli, ATCC35210, E. coli; for MIC: read-out: MIC
Method: as §1, §2

[4] = test system: Salmonella typhimurium (ATCC 13311); assay: Antibacterial microdilution (MIC/MBC); conditions: S.t. (S. typhimurium)
Method: as §1, §2

[5] = test system: Listeria monocytogenes (NCTC 7973); assay: Antibacterial microdilution (MIC/MBC); conditions: L.m. (L. monocytogenes)
Method: as §1, §2

[6] = test system: Staphylococcus aureus (ATCC 6538); assay: Antibacterial microdilution (MIC/MBC); conditions: S.a. (S. aureus)
Method: as §1, §2

[7] = test system: Penicillium verrucosum var. cyclopium (food isolate); assay: Antifungal bioassay (MIC/MFC)
Method: For the antifungal bioassays, six fungi were used: Aspergillus niger (ATCC 6275), Aspergillus fumigatus (ATCC 1022), Aspergillus versicolor (ATCC 11730), Penicillium funiculosum (ATCC 36839), Trichoderma viride (IAM 5061), and Penicillium verrucosum var. cyclopium (food isolate). The organisms were obtained from the Mycological Laboratory, Department of Plant Physiology, Institute for Biological Research “Siniša Stankovic”, Belgrade, Serbia. All experiments were performed in duplicate.

[8] = test system: Aspergillus niger (ATCC 6275); assay: Antifungal bioassay (MIC/MFC); conditions: ATCC6275, A.n. (A. niger)
Method: (§3) For the antifungal bioassays, six fungi were used: […] The organisms were obtained from the Mycological Laboratory, Department of Plant Physiology, Institute for Biological Research “Siniša Stankovic”, Belgrade, Serbia. All experiments were performed in duplicate.

A. ochraceus = assay: Antifungal bioassay (MIC/MFC); conditions: Aspergillus ochraceus, A.o. (A. ochraceus); for MIC: read-out: MIC
Method: as §3

[9] = test system: Penicillium funiculosum (ATCC 36839); assay: Antifungal bioassay (MIC/MFC); conditions: Talaromyces funiculosus, ATCC36839; P.f. (P. funiculosum)
Method: as §3

[10] = test system: Trichoderma viride (IAM 5061); assay: Antifungal bioassay (MIC/MFC); conditions: T.v. (T. viride)
Method: as §3

[11] = test system: Aspergillus fumigatus (ATCC 1022); assay: Antifungal bioassay (MIC/MFC); conditions: ATCC1022, A.f. (A. fumigatus)
Method: as §3

[12] = test system: Aspergillus versicolor (ATCC 11730); assay: Antifungal bioassay (MIC/MFC); conditions: ATCC11730, A.v. (A. versicolor)
Method: as §3

P. ochrochloron = assay: Antifungal bioassay (MIC/MFC); conditions: for MFC: P.o. (P. ochrochloron); for MIC: P.o. (P. ochrochloron; text: P. ochramensis)
Method: as §3

[13] = Enterobacter cloacae, read-out: MIC
[14] = Salmonella enterica, read-out: MIC
[15] = Listeria monocytogenes, NCTC7973
[16] = Listeria monocytogenes, NCTC7973, read-out: MIC
[17] = Staphylococcus aureus, ATCC6538
[18] = Staphylococcus aureus, ATCC6538, read-out: MIC
[19] = Trichoderma viride, IAM5061, read-out: MIC
[20] = Penicillium ochrochloron, read-out: MIC

SMILES	MBC [1] [µg/mL]	MIC [1] [µg/mL]	MBC (M. flavus) [µg/mL]	MIC (M. flavus) [µg/mL]	MBC ([2]; Enterobacter cloacae) [µg/mL]	MIC [2, 13] [µg/mL]	MBC (P. aeruginosa) [µg/mL]	MIC (P. aeruginosa) [µg/mL]	MBC [3] [µg/mL]	MIC [3] [µg/mL]	MBC ([4]; Salmonella enterica) [µg/mL]	MIC [4, 14] [µg/mL]	MBC [5, 15] [µg/mL]	MIC [5, 16] [µg/mL]	MBC [6, 17] [µg/mL]	MIC [6, 18] [µg/mL]	MFC [8] [µg/mL]	MIC [8] [µg/mL]	MFC (A. ochraceus) [µg/mL]	MIC (A. ochraceus) [µg/mL]	also measured
CC1(C)S[C@@H]2[C@H](NC(=O)[C@H](N)c3ccccc3)C(=O)N2[C@H]1C(=O)O [Ampicillin, reference compound]	25 (≈ 71.5 µM)	6 ± 3 (≈ 17.2 µM)	500 ± 100 (≈ 1430 µM)	250 ± 90 (≈ 715 µM)	500 ± 100 (≈ 1430 µM)	250 ± 90 (≈ 715 µM)	500 ± 100 (≈ 1430 µM)	300 ± 30 (≈ 859 µM)	200 (≈ 572 µM)	100 ± 50 (≈ 286 µM)	200 ± 9 (≈ 572 µM)	150 ± 30 (≈ 429 µM)	300 ± 30 (≈ 859 µM)	150 ± 30 (≈ 429 µM)	150 ± 50 (≈ 429 µM)	100 ± 50 (≈ 286 µM)	–	–	–	–	–
c1ccc(-c2ccc(C(c3ccccc3)n3ccnc3)cc2)cc1 (stereo not drawn) [Bifonazole, reference compound]	–	–	–	–	–	–	–	–	–	–	–	–	–	–	–	–	200 ± 10 (≈ 644 µM)	150 ± 50 (≈ 483 µM)	200 ± 10 (≈ 644 µM)	150 ± 50 (≈ 483 µM)	MFC ([7]; P.v.c. (P. cyclpoium var verucosum), read-out: MFC): 200 ± 10 µg/mL (≈ 644 µM); MIC ([7]; P.v.c. (P. cyclpoium var verucosum), read-out: MIC): 100 ± 9 µg/mL (≈ 322 µM); MFC [9]: 250 ± 50 µg/mL (≈ 805 µM); MIC [9]: 200 ± 10 µg/mL (≈ 644 µM); MFC ([10]; Trichoderma viride, IAM5061): 200 ± 10 µg/mL (≈ 644 µM); MIC [10, 19]: 150 ± 50 µg/mL (≈ 483 µM); MFC [11]: 200 ± 10 µg/mL (≈ 644 µM); MIC [11]: 150 ± 50 µg/mL (≈ 483 µM); MFC [12]: 200 ± 10 µg/mL (≈ 644 µM); MIC [12]: 100 ± 2 µg/mL (≈ 322 µM); MFC (P. ochrochloron; Penicillium ochrochloron): 250 ± 50 µg/mL (≈ 805 µM); MIC (P. ochrochloron; [20]): 200 ± 10 µg/mL (≈ 644 µM)
COC(=O)c1[nH]c2ccccc2c1/C=C1\SC(=S)N(Cc2ccco2)C1=O [Compound 7, (Z)-methyl 3-((3-(furan-2-ylmethyl)-4-oxo-2-thioxothiazolidin-5-ylidene)methyl)-1H-indole-2-carboxylate]	60 ± 6 (≈ 151 µM)	30 ± 10 (≈ 75.3 µM)	60 ± 6 (≈ 151 µM)	45 ± 3 (≈ 113 µM)	30 ± 10 (≈ 75.3 µM)	15 ± 9 (≈ 37.6 µM)	60 ± 6 (≈ 151 µM)	30 ± 10 (≈ 75.3 µM)	60 ± 6 (≈ 151 µM)	30 ± 10 (≈ 75.3 µM)	30 ± 10 (≈ 75.3 µM)	15 (≈ 37.6 µM)	60 ± 6 (≈ 151 µM)	30 ± 10 (≈ 75.3 µM)	30 ± 10 (≈ 75.3 µM)	15 (≈ 37.6 µM)	15 ± 3 (≈ 37.6 µM)	8 ± 0.6 (≈ 20.1 µM)	15 ± 3 (≈ 37.6 µM)	8 ± 0.6 (≈ 20.1 µM)	MIC [4]: 15 ± 9 µg/mL (≈ 37.6 µM); MIC [6]: 15 ± 9 µg/mL (≈ 37.6 µM); MFC [7]: 30 ± 10 µg/mL (≈ 75.3 µM); MIC [7]: 15 ± 3 µg/mL (≈ 37.6 µM); MFC [9]: 30 ± 10 µg/mL (≈ 75.3 µM); MIC [9]: 15 ± 3 µg/mL (≈ 37.6 µM); MIC [10]: 4 ± 1 µg/mL (≈ 10 µM); MFC ([10]; Trichoderma viride, IAM5061): 8 ± 0.6 µg/mL (≈ 20.1 µM); MIC [10, 19]: 4 µg/mL (≈ 10 µM); MFC [11]: 120 ± 40 µg/mL (≈ 301 µM); MIC [11]: 60 ± 6 µg/mL (≈ 151 µM); MFC [12]: 15 ± 3 µg/mL (≈ 37.6 µM); MIC [12]: 8 ± 0.6 µg/mL (≈ 20.1 µM); MIC (P. ochrochloron): 8 ± 0.6 µg/mL (≈ 20.1 µM); MFC (P. ochrochloron; Penicillium ochrochloron): 15 ± 3 µg/mL (≈ 37.6 µM); MIC (P. ochrochloron; [20]): 8 µg/mL (≈ 20.1 µM)
COC(=O)c1[nH]c2ccc(F)cc2c1/C=C1\SC(=S)N(C(C(=O)O)C(C)C)C1=O (stereo not drawn) [Compound 8, (Z)-2-(5-((5-fluoro-2-(methoxycarbonyl)-1H-indol-3-yl)methylene)-4-oxo-2-thioxothiazolidin-3-yl)-3-methylbutanoic acid]	60 ± 6 (≈ 137 µM)	30 ± 10 (≈ 68.7 µM)	60 ± 6 (≈ 137 µM)	30 ± 10 (≈ 68.7 µM)	8 ± 0.6 (≈ 18.3 µM)	4 (≈ 9.16 µM)	8 ± 0.6 (≈ 18.3 µM)	4 ± 5 (≈ 9.16 µM)	15 ± 9 (≈ 34.4 µM)	8 ± 1 (≈ 18.3 µM)	15 ± 9 (≈ 34.4 µM)	8 ± 9 (≈ 18.3 µM)	30 ± 10 (≈ 68.7 µM)	15 (≈ 34.4 µM)	60 ± 6 (≈ 137 µM)	30 ± 10 (≈ 68.7 µM)	30 ± 10 (≈ 68.7 µM)	15 ± 3 (≈ 34.4 µM)	15 ± 3 (≈ 34.4 µM)	8 ± 0.6 (≈ 18.3 µM)	MIC [2]: 4 ± 5 µg/mL (≈ 9.16 µM); MIC [5]: 15 ± 1 µg/mL (≈ 34.4 µM); MFC [7]: 120 ± 40 µg/mL (≈ 275 µM); MIC [7]: 60 ± 6 µg/mL (≈ 137 µM); MFC [9]: 30 ± 10 µg/mL (≈ 68.7 µM); MIC [9]: 15 ± 3 µg/mL (≈ 34.4 µM); MFC [11]: 120 ± 40 µg/mL (≈ 275 µM); MIC [11]: 60 ± 6 µg/mL (≈ 137 µM); MFC [12]: 30 ± 10 µg/mL (≈ 68.7 µM); MIC [12]: 15 ± 3 µg/mL (≈ 34.4 µM); MFC (P. ochrochloron; Penicillium ochrochloron): 30 ± 10 µg/mL (≈ 68.7 µM); MIC (P. ochrochloron; [20]): 15 ± 3 µg/mL (≈ 34.4 µM)
CC(=O)N1CCN(c2ccc(OCC3COC(Cn4ccnc4)(c4ccc(Cl)cc4Cl)O3)cc2)CC1 (stereo not drawn) [Ketoconazole, reference compound]	–	–	–	–	–	–	–	–	–	–	–	–	–	–	–	–	500 ± 4 (≈ 941 µM)	200 ± 10 (≈ 376 µM)	500 ± 6 (≈ 941 µM)	250 ± 50 (≈ 470 µM)	MFC [7]: 300 ± 10 µg/mL (≈ 565 µM); MIC [7]: 200 ± 10 µg/mL (≈ 376 µM); MFC [9]: 500 ± 3 µg/mL (≈ 941 µM); MIC [9]: 200 ± 10 µg/mL (≈ 376 µM); MFC ([10]; Trichoderma viride, IAM5061): 1500 ± 90 µg/mL (≈ 2820 µM); MIC [10, 19]: 1000 ± 100 µg/mL (≈ 1880 µM); MFC [11]: 500 ± 1 µg/mL (≈ 941 µM); MIC [11]: 200 ± 10 µg/mL (≈ 376 µM); MFC [12]: 500 ± 2 µg/mL (≈ 941 µM); MIC [12]: 200 ± 10 µg/mL (≈ 376 µM); MFC (P. ochrochloron; Penicillium ochrochloron): 3500 ± 30 µg/mL (≈ 6590 µM); MIC (P. ochrochloron; [20]): 2500 ± 300 µg/mL (≈ 4700 µM)
[H]/N=C(/N)N[C@H]1[C@H](O)[C@@H](O)[C@H](O[C@@H]2O[C@@H](C)[C@](O)(C=O)[C@H]2O[C@@H]2O[C@@H](CO)[C@H](O)[C@@H](O)[C@@H]2NC)[C@@H](N/C(N)=N\[H])[C@@H]1O [Streptomycin, reference compound]	3 ± 0.5 (≈ 5.16 µM)	1.5 ± 0.2 (≈ 2.58 µM)	300 ± 30 (≈ 516 µM)	200 (≈ 344 µM)	300 ± 30 (≈ 516 µM)	200 ± 5 (≈ 344 µM)	200 (≈ 344 µM)	100 ± 50 (≈ 172 µM)	200 (≈ 344 µM)	100 ± 50 (≈ 172 µM)	200 ± 9 (≈ 344 µM)	100 ± 50 (≈ 172 µM)	300 ± 30 (≈ 516 µM)	150 ± 30 (≈ 258 µM)	200 (≈ 344 µM)	100 (≈ 172 µM)	–	–	–	–	–
